Experimental data taken from patent US20060099568A1, “Signals and molecular species involved in senescence” (priority 2002, published 2006).

Legend:
[1] = tested on: HDF; experiment: viable cell counting (Trypan blue) with adenylyl cyclase inhibitor and/or LPA; assay type: cell-based, human; conditions: senescent cell culture; LPA plus adenylyl cyclase inhibitor (SQ22536 300 μM)
Procedure: O and Y denote old and young cell, respectively.
Young or old HDF (passage 8-11) were treated with LPA (30 μM), dbcAMP (cAMP analog, 1 mM, Sigma), adenylyl cyclase inhibitor, SQ22536 (300 μM, Calbiochem) and their combinations for 30-60 min at 37° C. The cells treated were stained with Trypan blue (GiBco/BRL) for 10 min at 37° C. and only cells without blue color were then counted under hemacytometer.

[2] = tested on: HDF; experiment: flow cytometry (FACS, propidium iodide) of cell cycle progression; assay type: cell-based, human; conditions: senescent cell
Procedure: FIG. 21 represents the results of FACS analysis evaluating the effect of LPA on cell cycle progression in senescent cells in connection with the affection of cAMP control. Con denotes control group and ACI is adenylyl cyclase inhibitor.
In addition, the treated cells were analyzed using flow cytometry. The treated cells were harvested and treated with […] of 0.1% trypsin for 30 sec, after which centrifugation was performed at 4° C. for 10 min at 1000 rpm. Then, the cell concentration was adjusted to 1-3×10^6 cells/ml in sample buffer. The sample buffer was prepared in such a manner that 1 g glucose in 1 L PBS without Ca^2+ and Mg^2+ was filtered through a 0.22 μm filter. The solutions containing cells was centrifuged at 4° C. for 10 min at 1000 rpm and ice-cold 70% ethanol was added dropwise to pellet. The sample tube was capped, allowed to fix in the ethanol overnight at 4° C., vortexed briefly, and then centrifuged for 5 min at 3000 rpm. Thereafter, ethanol was discarded and PI (propidium iodide) staining solution (0.5 ml 20× propidium iodide stock solution (50 μg/ml final), 1000 kunits RNase A (100 U/ml final) and 10 ml sample buffer) was added into the sample tube. Finally, the sample was analyzed within 24 hr in a […] (FACS Calibur, Beckton-Dikinson).

[3] = tested on: human diploid fibroblasts; experiment: growth factor-stimulated signaling events in human diploid fibroblasts; assay type: cell-based
Procedure: Foreskin fibroblasts were isolated as described by Boyce and Ham (1983). Cells were cultured in Dulbecco's modified Eagle's medium containing 10% fetal bovine serum and antibiotics. The primary culture contained smaller and more closely packed cells during the early stage of the culture. Cells with less than 10 passage were often considered as presenescent cells. As the cells were passaged, they became larger and they have a slower growth rate at passage 10-20. Cells from over 27 passages were completely growth-arrested and developed characteristic appearance designated previously as replicative senescence (Yeo et al., 2000a and b). In order to confirm that cells were senescent, we either examined the activity of beta-galactosidase or stained with X-gal, a membrane permeable substrate of the enzyme, which produces a blue insoluble product inside of the cells. The number of cells stained with X-gal increased with age and most of cells from passage 27-28 were stained. Cultures of over 23-28 passages have also shown the cessation of cell growth and senescence-like morphological changes, but only 70-80% of cells were stained with X-gal. These were termed “near-senescent”. Although the near-senescent cultures were not completely homogeneous, we compared the changes in these cultures to those in presenescent cultures of passage 6-10. In order to determine the growth factor-stimulated signaling events, cells were grown for 1-2 days to 60-70% sub-confluency in the culture medium, and then serum-starved to become quiescent by incubating with serum free medium (SFM) for 2 days. The quiescent cells were treated with various agonists, as described in the figure legends. To label cells, radioactive chemicals were added during the incubation with SFM.
Primary human diploid fibroblasts, isolated from newborn foreskins, were used to study the mechanism of reduced response to growth factor stimulation with aging. These cells were maintained and passaged as described previously (Yeo et al., 2000a). […] Compared to their presenescent counterparts, the senescent and near-senescent cells were larger and grew to lower density, as has been observed in other cell systems. Here the present inventors report upon the differential changes in the signaling events evoked by platelet-derived growth factor (PDGF) and lysophosphatidic acid (LPA). PDGF elicits signaling events over a concentration range of 10-100 ng/ml, whereas LPA stimulates the hydrolysis of phospholipids, Ca^2+ mobilization, and actin polymerization over a concentration range of 0.1-10 μg/ml in human diploid fibroblasts. In order to compare their cellular responses, we treated presenescent and senescent (or near-senescent) cells with PDGF and LPA at a maximally responsive dose of 50 ng/ml and 1 μg/ml, respectively.

[4] = tested on: human diploid fibroblasts; experiment: measurement of cytosolic free [Ca2+]i by confocal microscopy (fluo-3-AM); assay type: cell-based; conditions: PDGF 50 ng/ml, LPA 1 μg/ml
Procedure: FIG. 1 represents differential changes in growth factor-stimulated calcium release in senescent fibroblasts. Presenescent (passage 7: A and C) and senescent (passage 27: B and D) fibroblasts were grown on coverslips, serum-starved, and incubated with 4 μM fluo-3-AM in serum-free medium for 40 min. The stained cells were treated with […] of platelet-derived growth factor (A and B) or 1 μg/ml of lysophosphatidic acid (C and D) via a micro-perfusion system for the real-time measurement of signaling molecules, and laser scanning confocal microscopy. The scanned images were analyzed for changes in intracellular Ca^2+ at the single cell level and results expressed as relative fluorescence intensity (RFI).
[Ca^2+]i was measured using a laser scanning confocal microscope, as described by Junn et al. (2000). Quiescent fibroblasts grown on glass cover slips in a 6-well plate were stained with 4 μM of fluo-3-acetoxymethyl ester (fluo-3-AM) in phenol red-free medium without serum for 40 min and washed three times with the serum-free medium. Stained cells on each cover slip were mounted on a perfusion chamber (MPS-1000, Seoul Engineering, Korea), placed under the confocal laser scanning microscope (Carl Zeiss LSM 410), and scanned every 5 sec with a 488 nm excitation argon laser and a 515 nm long pass emission filter. Growth factors were added to the cells using an automatic pumping system (self-designed). All scanned images were analyzed for [Ca ^2+]i changes at the single cell level using “Time Series Program” for a real-time measurement of relative fluorescence intensity (RFI) which is installed in the Carl Zeiss LSM 410 confocal system.

[5] = tested on: human diploid fibroblasts; experiment: confocal microscopic measurement of actin polymerization (NBD-phallacidin); assay type: cell-based; conditions: PDGF 50 ng/ml, LPA 1 μg/ml
Procedure: FIG. 2 represents differential changes in growth factor-induced actin polymerization in senescent fibroblasts. […] The cells were fixed, permeabilized, and stained with NBD-phallacidin, then photographed.
F-actin was stained as described by Shin et al. (1999). Quiescent cells grown on glass cover slips in multi-well culture plates were treated with agonists for 30 min, and the cells were fixed with 3.7% paraformaldehyde in PBS for 30 min on ice. Following permeabilization with 0.2% Triton X-100 in PBS for 15 min on ice, the cells were stained with […] NBD-phallacidin in PBS for 30 min at RT. The stained cells were washed three times with PBS for 15 min and the cover slip was mounted on a slide glass with Gelvatol, which was prepared by mixing 100 ml of 23% polyvinyl alcohol in PBS with 50 ml glycerol. The cells were then observed under a confocal fluorescence microscope.

[6] = tested on: phospholipase D (PLD); experiment: phosphatidylbutanol formation as an indication of phospholipase D activity; assay type: cell-based, human; conditions: passage 24 near-senescent cells vs presenescent; 0.5% 1-butanol, 20 min
Procedure: Subconfluent presenescent (passage 8: Pa 8) and near-senescent (passage 24: Pa 24) cells were serum-starved and labeled with [^3H]myristic acid overnight. […] A representative experiment of three performed in duplicate is presented.
Quiescent cells were labeled overnight with [^3H]myristic acid (1 μCi/ml) and then washed with PBS. Phosphatidylbutanol formation was measured as described by Yeo et al. (1994). Cells were preincubated with 0.5% (v/v) 1-butanol for 15 min and then treated with agonists for 20 min in the presence of 0.5% 1-butanol. Total lipids were extracted and separated by thin layer chromatography. The band of phosphatidylbutanol was scraped off the plates and its radioactivity was counted in a liquid scintillation cocktail.

[7] = tested on: human diploid fibroblasts; experiment: DNA synthesis, [3H]thymidine incorporation; assay type: cell-based; conditions: for increase in [3H]thymidine incorporation: 50-100 ng/ml PDGF
Procedure: FIG. 5 represents reduction of growth factor-induced thymidine incorporation in near-senescent fibroblasts. […] The amount of [^3H]thymidine incorporated into DNA over 4 hrs was measured as described. The data represents an average of 3 counts in cpm. A representative experiment of the three is presented in A. Fold increase over the untreated control was calculated and plotted in B.
FIG. 18 represents changes in LPA-induced thymidine incorporation and cell proliferation in near-senescent fibroblasts versus presenescent fibroblasts. Subconfluent presenescent (passage 8, Pa 8) and near-senescent (passage 24, Pa 24) fibroblasts were serum-starved for 2 days and treated with LPA (1-70 μg/ml) for 16 hrs. The amount of [^3H]thymidine incorporated into DNA over 4 hrs was measured as described. The data represents an average of 3 counts in cpm in each independent experiments. A representative experiment of the three is presented in A. Converted fold increase over the untreated control was calculated and plotted in B.
Quiescent cells were labeled with [^3H]thymidine (0.5 μCi/ml) for 4 hrs and the […] radioactive thymidine was removed by washing with PBS. DNA was precipitated with 10% TCA and lysed in 0.5N NaOH. The radioactivity in neutralized lysates was counted in a liquid scintillation cocktail.

[8] = tested on: Phospholipase C (PLC); conditions: near-senescent cells (passage 23) vs presenescent (passage 6); PDGF 50 ng/ml, LPA 1 μg/ml, 20 min, 20 mM LiCl
[9] = tested on: cellular cAMP; experiment: measurement of cyclic AMP accumulation (cAMP binding assay); assay type: cell-based, human; conditions: near-senescent HDF (passage 26); 30 μg/ml LPA; 10 μM inhibitor
Procedure: FIG. 9 represents LPA-induced alteration of cellular cAMP content in presenescent and near-senescent fibroblasts. Subconfluent presenescent (passage 8, Pa 8) and near-senescent (passage 24, Pa 24) fibroblasts were serum-starved for 2 days and treated with LPA: A, 1-70 μg/ml LPA for 30 min; B, 30 μg/ml LPA for the indicated times. The level of cAMP in the acid extracts was measured by cAMP binding assay. The data represents an average of triplicate experiments.
Subconfluent near-senescent (passage 26, Pa 26) fibroblasts were serum-starved for 2 days and treated with 30 μg/ml LPA for the indicated times in the absence or presence of 10 μM PKC inhibitor bisindolylmaleiamide (bIM). The level of cAMP in the acid extracts was measured by cAMP binding assay. The data represents an average of triplicate experiments.
Cells grown on a 12 well-plate were serum-starved by incubating with SFM for 2 days. After the cells were equilibrated in the fresh SFM medium for 1 hour, they were treated with LPA as described in the figure. The reaction was terminated by removing the medium and by adding 2.5 M perchloric acid. The acid extract was stored at −20° C. until use. The acid extract was neutralized with 4.2 M KOH and the cAMP content was determined by competitive binding with [^3H]cAMP to the cAMP binding protein, RIα of cAMP-dependent protein kinase, as described by Jang and Juhnn (2001). After the extraction, cells were lyzed with 0.1 N NaOH and analyzed for protein content using the Bradford protein assay reagent. The cAMP content was normalized to the amount of acid-insoluble protein.

[10] = near-senescent cells (passage 24)

Nc1ncnc2c1ncn2C1CCCO1 (stereo not shown) [adenylyl cyclase inhibitor]
viable cell number [1]: dramatically increased | number of cells in S phase ([2]; adenylyl cyclase inhibitor alone): dramatically increased | number of cells in S phase ([2]; co-treatment of adenylyl cyclase inhibitor with LPA): more enhanced

PDGF
concentration range over which signaling events are elicited ([3]; human diploid fibroblasts): 10 to 100 ng/mL | maximally responsive dose ([3]; presenescent and senescent (or near-senescent) cells): 50 ng/mL | cytosolic Ca2+ levels ([4]; presenescent fibroblasts (passage 7)): rapid increase | Ca2+ response in senescent cells relative to presenescent ([4]; senescent cells (passage 27)): greatly attenuated | actin polymerization (stress fibers) ([5]; presenescent fibroblasts (passage 10)): enhanced the formation of stress fibers | agonist-induced actin polymerization in senescent cells ([5]; senescent cells (passage 27)): almost completely blocked | reduction of PLD activity [6]: 80% | agonist-induced DNA synthesis ([3H]thymidine incorporation) in near-senescent cells vs presenescent [7, 10]: greatly reduced | increase in [3H]thymidine incorporation [7, 10]: 1.3 fold | increase in [3H]thymidine incorporation ([7]; presenescent cells (passage 8)): 7-8 fold | concentration range of very strong agonism for [3H]thymidine incorporation ([7]; presenescent fibroblasts): 10 to 100 ng/mL | agonist-stimulated inositol phosphates (IPs) production [8]: dramatically reduced

bisindolylmaleiamide [bis-indolylmaleiamide]
cAMP content in LPA-stimulated cells in presence of PKC inhibitor [9]: inhibition of cAMP accumulation
